Test results: patent publication US20210045385A1, “PYRIDAZINONE-SUBSTITUTED KETOXIMES AS HERBICIDES” (FMC Corporation, priority 2018, published 2021)

Tests used:
Assay type in all cases: in vivo
[1] = system: ragweed (common ragweed, Ambrosia elatior); assay: Test A preemergence, visual plant response rating; settings: for Ragweed plant response rating: 125 g ai/ha, preemergence, 0 to 100 scale, 0 no effect, 100 complete control; for Ragweed plant response rating (0 to 100 scale): 500 g ai/ha Preemergence, approx. 10 days
Summary of the method: (§1)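 Formulated in a non-phytotoxic solvent mixture including surfactant, each test chemical was sprayed onto the soil surface after sowing, or onto seedlings 2 to 10 cm high. Roughly 10 days later, plants were compared with untreated controls and rated for injury from 0 (no effect) to 100 (complete control).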

[2] = system: pigweed (Amaranthus retroflexus); assay: Test A preemergence, visual plant response rating; settings: for Pigweed plant response rating: 125 g ai/ha, preemergence, 0 to 100 scale, 0 no effect, 100 complete control; for Pigweed plant response rating (0 to 100 scale): 500 g ai/ha Preemergence, approx. 10 days
Summary of the method: as §1

kochia (Kochia scoparia) [3] = assay: Test A preemergence, visual plant response rating; settings: for Kochia plant response rating: 125 g ai/ha, preemergence, 0 to 100 scale, 0 no effect, 100 complete control; for Kochia plant response rating (0 to 100 scale): 500 g ai/ha Preemergence, approx. 10 days
Summary of the method: as §1

[4] = system: foxtail, giant (giant foxtail, Setaria faberii); assay: Test A preemergence, visual plant response rating; settings: for Foxtail, Giant plant response rating: 125 g ai/ha, preemergence, 0 to 100 scale, 0 no effect, 100 complete control; for Foxtail, Giant plant response rating (0 to 100 scale): 500 g ai/ha Preemergence, approx. 10 days
Summary of the method: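 Ratings 0–100 (100 = complete control), visual, vs untreated controls at ~10 days. Application pre- or postemergence; solvent mixture with surfactant; loam/sand medium.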

[5] = system: Italian ryegrass (Lolium multiflorum); assay: Test A preemergence, visual plant response rating; settings: for Ryegrass, Italian plant response rating: 125 g ai/ha, preemergence, 0 to 100 scale, 0 no effect, 100 complete control; for Ryegrass, Italian plant response rating (0 to 100 scale): 500 g ai/ha Preemergence, approx. 10 days
Summary of the method: as §1

[6] = system: barnyardgrass (Echinochloa crus-galli); assay: Test A preemergence, visual plant response rating; settings: for Barnyardgrass plant response rating: 125 g ai/ha, preemergence, 0 to 100 scale, 0 no effect, 100 complete control; for Barnyardgrass plant response rating (0 to 100 scale): 500 g ai/ha Preemergence, approx. 10 days
Summary of the method: as §1

rice (Oryza sativa) = assay: Test B flooded paddy test, visual plant response rating; settings: 250 g ai/ha, Flood, applied to paddy water, 2-leaf stage, evaluated after 13 to 15 days
Summary of the method: (§2)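 Seedlings at 2 leaves; compound into paddy water (3 cm flood, maintained); 13–15 d greenhouse; visual score relative to controls.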

[7] = system: ducksalad (Heteranhera limosa); assay: as above; settings: 250 g ai/ha, Flood, applied to paddy water, 2-leaf stage, evaluated after 13 to 15 days
Summary of the method: as §2

[8] = system: sedge, umbrella (small-flower umbrella sedge, Cyperus difformis); assay: as above; settings: 250 g ai/ha, Flood, applied to paddy water, 2-leaf stage, evaluated after 13 to 15 days
Summary of the method: as §2

[9] = system: barnyardgrass (Echinochloa crus-galli); assay: as above; settings: 250 g ai/ha, Flood, applied to paddy water, 2-leaf stage, evaluated after 13 to 15 days
Summary of the method: as §2

corn (Zea mays) = assay: Test A postemergence, visual plant response rating; settings: for Corn plant response rating (0 to 100 scale): 500 g ai/ha, postemergence, 0 is no effect, 100 is complete control; for Corn plant response rating: Postemergence, 125 g ai/ha, 0 to 100 scale (0 no effect, 100 complete control)
Summary of the method: as §1

[10] = system: ragweed (common ragweed, Ambrosia elatior); assay: Test A postemergence, visual plant response rating; settings: for Ragweed plant response rating (0 to 100 scale): 500 g ai/ha, postemergence, 0 is no effect, 100 is complete control; for Ragweed plant response rating: Postemergence, 125 g ai/ha, 0 to 100 scale (0 no effect, 100 complete control)
Summary of the method: as §1

[11] = system: galium (catchweed bedstraw, Galium aparine); assay: Test A postemergence, visual plant response rating; settings: for Galium plant response rating (0 to 100 scale): 500 g ai/ha, postemergence, 0 is no effect, 100 is complete control; for Galium plant response rating: Postemergence, 125 g ai/ha, 0 to 100 scale (0 no effect, 100 complete control)
Summary of the method: as §1

[12] = system: pigweed (Amaranthus retroflexus); assay: Test A postemergence, visual plant response rating; settings: for Pigweed plant response rating (0 to 100 scale): 500 g ai/ha, postemergence, 0 is no effect, 100 is complete control; for Pigweed plant response rating: Postemergence, 125 g ai/ha, 0 to 100 scale (0 no effect, 100 complete control)
Summary of the method: as §1

kochia (Kochia scoparia) [13] = assay: Test A postemergence, visual plant response rating; settings: for Kochia plant response rating (0 to 100 scale): 500 g ai/ha, postemergence, 0 is no effect, 100 is complete control; for Kochia plant response rating: Postemergence, 125 g ai/ha, 0 to 100 scale (0 no effect, 100 complete control)
Summary of the method: as §1

[14] = system: wheat (Triticum aestivum); assay: Test A postemergence, visual plant response rating; settings: for Wheat plant response rating (0 to 100 scale): 500 g ai/ha, postemergence, 0 is no effect, 100 is complete control; for Wheat plant response rating: Postemergence, 125 g ai/ha, 0 to 100 scale (0 no effect, 100 complete control)
Summary of the method: as §1

[15] = system: foxtail, giant (giant foxtail, Setaria faberii); assay: Test A postemergence, visual plant response rating; settings: for Foxtail, Giant plant response rating (0 to 100 scale): 500 g ai/ha, postemergence, 0 is no effect, 100 is complete control; for Foxtail, Giant plant response rating: Postemergence, 125 g ai/ha, 0 to 100 scale (0 no effect, 100 complete control)
Summary of the method: as §1

[16] = system: Italian ryegrass (Lolium multiflorum); assay: Test A postemergence, visual plant response rating; settings: for Ryegrass, Italian plant response rating (0 to 100 scale): 500 g ai/ha, postemergence, 0 is no effect, 100 is complete control; for Ryegrass, Italian plant response rating: Postemergence, 125 g ai/ha, 0 to 100 scale (0 no effect, 100 complete control)
Summary of the method: as §1

[17] = system: barnyardgrass (Echinochloa crus-galli); assay: Test A postemergence, visual plant response rating; settings: for Barnyardgrass plant response rating (0 to 100 scale): 500 g ai/ha, postemergence, 0 is no effect, 100 is complete control; for Barnyardgrass plant response rating: Postemergence, 125 g ai/ha, 0 to 100 scale (0 no effect, 100 complete control)
Summary of the method: as §1

[18] = system: blackgrass (Alopecurus myosuroides); assay: Test A postemergence, visual plant response rating; settings: for Blackgrass plant response rating (0 to 100 scale): 500 g ai/ha, postemergence, 0 is no effect, 100 is complete control; for Blackgrass plant response rating: Postemergence, 125 g ai/ha, 0 to 100 scale (0 no effect, 100 complete control)
Summary of the method: as §1

`CON=C(c1ccc(F)cc1C)c1c(O)c(C)nn(C)c1=O` [Compound 41] was tested, and the “Ragweed plant response rating” value [1] was 0, the “Ragweed plant response rating (0 to 100 scale)” value [1] was 80 and the “Pigweed plant response rating” value [2] was 0. The “Pigweed plant response rating (0 to 100 scale)” value [2] was 80, the “Kochia plant response rating” value (kochia (Kochia scoparia) [3]) was 0 and the “Kochia plant response rating (0 to 100 scale)” value (kochia (Kochia scoparia) [3]) was 0. For the same compound, the “Foxtail, Giant plant response rating” value [4] was 0, the “Foxtail, Giant plant response rating (0 to 100 scale)” value (“Foxtail … (0 to 100 scale)” for short) [4] was 0 and the “Ryegrass, Italian plant response rating” value [5] was 0. For the same compound, the “Ryegrass, Italian plant response rating (0 to 100 scale)” value (“Ryegrass … (0 to 100 scale)” for short) [5] was 20, the “Barnyardgrass plant response rating” value [6] was 0 and the “Barnyardgrass plant response rating (0 to 100 scale)” value [6] was 10. The “Plant response rating, Rice (0 to 100 scale, 0 is no effect, 100 is complete control)” value (rice (Oryza sativa)) was 0, the “Plant response rating, Ducksalad (0 to 100 scale, 0 is no effect, 100 is complete control)” value [7] was 0 and the “Plant response rating, Sedge, Umbrella (0 to 100 scale, 0 is no effect, 100 is complete control)” value [8] was 0. The “Plant response rating, Barnyardgrass (0 to 100 scale, 0 is no effect, 100 is complete control)” value [9] was 0, the “Corn plant response rating (0 to 100 scale)” value (corn (Zea mays)) was 0 and the “Corn plant response rating” value (corn (Zea mays)) was 0. The “Ragweed plant response rating (0 to 100 scale)” value [10] was 60, the “Ragweed plant response rating” value [10] was 30 and the “Galium plant response rating (0 to 100 scale)” value [11] was 70. The “Galium plant response rating” value [11] was 70, the “Pigweed plant response rating (0 to 100 scale)” value [12] was 90 and the “Pigweed plant response rating” value [12] was 40. The “Kochia plant response rating (0 to 100 scale)” value (kochia (Kochia scoparia) [13]) was 60, the “Kochia plant response rating” value (kochia (Kochia scoparia) [13]) was 20 and the “Wheat plant response rating (0 to 100 scale)” value [14] was 20. The “Wheat plant response rating” value [14] was 0, the “Foxtail … (0 to 100 scale)” value [15] was 0 and the “Foxtail, Giant plant response rating” value [15] was 0. The “Ryegrass … (0 to 100 scale)” value [16] was 60, the “Ryegrass, Italian plant response rating” value [16] was 0 and the “Barnyardgrass plant response rating (0 to 100 scale)” value [17] was 0. The “Barnyardgrass plant response rating” value [17] was 0, the “Blackgrass plant response rating (0 to 100 scale)” value [18] was 0 and the “Blackgrass plant response rating” value [18] was 0.
In the case of `CO/N=C(\c1sccc1C)c1c(O)c(C)nn(C)c1=O` [Compound 42], the “Ragweed plant response rating” value [1] is reported as 60, the “Ragweed plant response rating (0 to 100 scale)” value [1] is reported as 80 and the “Pigweed plant response rating” value [2] is reported as 0. The “Pigweed plant response rating (0 to 100 scale)” value [2] was 20, the “Kochia plant response rating” value (kochia (Kochia scoparia) [3]) was 0 and the “Kochia plant response rating (0 to 100 scale)” value (kochia (Kochia scoparia) [3]) was 10. The “Foxtail, Giant plant response rating” value [4] was 0, the “Foxtail … (0 to 100 scale)” value [4] was 0 and the “Ryegrass, Italian plant response rating” value [5] was 0. The “Ryegrass … (0 to 100 scale)” value [5] was 20, the “Barnyardgrass plant response rating” value [6] was 0 and the “Barnyardgrass plant response rating (0 to 100 scale)” value [6] was 0. The “Plant response rating, Rice (0 to 100 scale, 0 is no effect, 100 is complete control)” value (rice (Oryza sativa)) was 10, the “Plant response rating, Ducksalad (0 to 100 scale, 0 is no effect, 100 is complete control)” value [7] was 20 and the “Plant response rating, Sedge, Umbrella (0 to 100 scale, 0 is no effect, 100 is complete control)” value [8] was 20. The “Plant response rating, Barnyardgrass (0 to 100 scale, 0 is no effect, 100 is complete control)” value [9] was 15, the “Corn plant response rating (0 to 100 scale)” value (corn (Zea mays)) was 0 and the “Corn plant response rating” value (corn (Zea mays)) was 0. For the same compound, the “Ragweed plant response rating (0 to 100 scale)” value [10] was 50, the “Ragweed plant response rating” value [10] was 40 and the “Galium plant response rating (0 to 100 scale)” value [11] was 60. The “Galium plant response rating” value [11] was 70, the “Pigweed plant response rating (0 to 100 scale)” value [12] was 80 and the “Pigweed plant response rating” value [12] was 60. The “Kochia plant response rating (0 to 100 scale)” value (kochia (Kochia scoparia) [13]) was 50, the “Kochia plant response rating” value (kochia (Kochia scoparia) [13]) was 20 and the “Wheat plant response rating (0 to 100 scale)” value [14] was 0. The “Wheat plant response rating” value [14] was 0, the “Foxtail … (0 to 100 scale)” value [15] was 10 and the “Foxtail, Giant plant response rating” value [15] was 0. The “Ryegrass … (0 to 100 scale)” value [16] was 70, the “Ryegrass, Italian plant response rating” value [16] was 50 and the “Barnyardgrass plant response rating (0 to 100 scale)” value [17] was 10. The “Barnyardgrass plant response rating” value [17] was 0, the “Blackgrass plant response rating (0 to 100 scale)” value [18] was 0 and the “Blackgrass plant response rating” value [18] was 0.
